Where a SMILES comes first, the peptide text is derived from it. The star is where a group is joined. Cbz = O=C(OCc1ccccc1)*; CF3 = FC(F)(F)*
Experiment: Inhibition of recombinant C-terminal His-tagged SARS coronavirus 1 3CL protease using Boc-Abu-Tle-Leu-Gln-AMC as substrate incubated for 5 mins by Cheng-Prusoff equation analysis
Parameters: species or system Severe acute respiratory syndrome-related coronavirus

`CC(C)C[C@H](NC(=O)[C@@H](NC(=O)[C@H](C)NC(=O)OCc1ccccc1)C(C)C)C(=O)N[C@@H](CCC(N)=O)C(=O)C(F)(F)F` (Cbz-AVLQ-CF3) showed a Ki of 135 µM.

From ChEMBL document CHEMBL5042480, “3CL Protease Inhibitors with an Electrophilic Arylketone Moiety as Anti-SARS-CoV-2 Agents” (J Med Chem, 2022)
